Test results taken from PubChem BioAssay (NCI).
Several values for one entry are separate records, joined by “and”; a condition that tells them apart may be missing. Equal entries are not always repeated.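 96-well plates; 48 h exposure; 5 concentrations. Endpoints by linear interpolation between flanking doses. Not reached: highest tested concentration assigned. GI50 = concentration required for 50% inhibition of growth. Definition used: TGI = concentration required for complete inhibition of growth.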

What was measured:
Assay in all cases: growth of human tumour cells (NCI), 48 h; in the data active means GI50 below about 0.43 µM; inactive means the rest
[1] = test system: OVCAR-8 ovarian
[2] = test system: 786-0 renal
[3] = test system: K-562 leukemia
[4] = test system: HS 578T breast
[5] = test system: BT-549 breast
[6] = test system: HCT-15 colon
[7] = test system: A549 NSCLC
[8] = test system: SK-MEL-5 melanoma
[9] = test system: SNB-19 CNS
[10] = test system: SF-539 CNS
[11] = test system: ACHN renal
[12] = test system: SW-620 colon
[13] = test system: LOX IMVI melanoma
[14] = test system: NCI-H226 lung
[15] = test system: MDA-MB-435
[16] = test system: RPMI-8226 leukemia
[17] = test system: SN12C renal
[18] = test system: MALME-3M melanoma
[19] = test system: SR leukemia
[20] = test system: U251 CNS
[21] = test system: HCC-2998 colon
[22] = test system: NCI-H460 lung
[23] = test system: TK-10 renal
[24] = test system: HT29 colon
[25] = test system: IGROV1 ovarian
[26] = test system: SNB-75 CNS
[27] = test system: KM12 colon
[28] = test system: COLO 205 colon
[29] = test system: UO-31 renal
[30] = test system: CAKI-1 renal
[31] = test system: MDA-MB-468 breast
[32] = test system: M14 melanoma
[33] = test system: SF-295 CNS
[34] = test system: SK-MEL-28 melanoma
[35] = test system: EKVX NSCLC
[36] = test system: SK-MEL-2 melanoma
[37] = test system: UACC-62 melanoma
[38] = test system: MOLT-4 leukemia
[39] = test system: HL-60(TB) leukemia
[40] = test system: CCRF-CEM leukemia
[41] = test system: RXF 393 renal
[42] = test system: SK-OV-3 ovarian
[43] = test system: T-47D breast
[44] = test system: HCT-116 colon
[45] = test system: MCF7 breast
[46] = test system: OVCAR-3 ovarian
[47] = test system: HOP-62 NSCLC
[48] = test system: MDA-MB-231 breast
[49] = test system: SF-268 CNS
[50] = test system: A498 renal
[51] = test system: PC-3 prostate
[52] = test system: NCI-H522 lung
[53] = test system: NCI/ADR-RES ovarian
[54] = test system: DU-145 prostate
[55] = test system: OVCAR-5 ovarian
[56] = test system: NCI-H23 lung
[57] = test system: UACC-257 melanoma
[58] = test system: OVCAR-4 ovarian
[59] = test system: HOP-92 NSCLC

Cc1ccc(C(=O)CSc2nnc(-c3c[nH]c4ccccc34)n2-c2ccccc2)cc1
25.9 µM: TGI [33]
39.1 µM: TGI [8]
37.2 µM: TGI [55]
60.4 µM: TGI [44]
34.5 µM: TGI [9]
27.3 µM: TGI [13]
52.1 µM: TGI [34]
29.6 µM: TGI [26]
> 100 µM: TGI [1] | TGI [3] | TGI [6] | TGI [12] | TGI [16] | TGI [19] | TGI [27] | TGI [28] | TGI [32] | TGI [36] | TGI [38] | TGI [39] | TGI [40] | TGI [43] | TGI [54] | TGI [57]
27.5 µM: TGI [56]
38.1 µM: TGI [37]
43.7 µM: TGI [52]
39.2 µM: TGI [45]
98.9 µM: TGI [35]
46.7 µM: TGI [5]
28.9 µM: TGI [41]
26.1 µM: TGI [14]
31.3 µM: TGI [25]
37.8 µM: TGI [51]
56.3 µM: TGI [4]
41.5 µM: TGI [58]
50.5 µM: TGI [24]
32.3 µM: TGI [31]
35.9 µM: TGI [47]
28.5 µM: TGI [10]
31 µM: TGI [22]
65.6 µM: TGI [20]
29.8 µM: TGI [30]
69.4 µM: TGI [50]
51.7 µM: TGI [21]
34.7 µM: TGI [59]
65.4 µM: TGI [15]
32.6 µM: TGI [48]
33.1 µM: TGI [42]
31.4 µM: TGI [29]
30.2 µM: TGI [53]
78.9 µM: TGI [49]
inactive: GI50 [1] 24.5 µM | GI50 [2] 14.7 µM | GI50 [3] 22.1 µM | GI50 [4] 14.1 µM | GI50 [5] 25.1 µM | GI50 [6] 22.6 µM | GI50 [7] 13.9 µM | GI50 [8] 16.5 µM | GI50 [9] 15.8 µM | GI50 [10] 15 µM | GI50 [11] 13.7 µM | GI50 [12] 30.3 µM | GI50 [13] 14.3 µM | GI50 [14] 9.22 µM | GI50 [15] 22.8 µM | GI50 [16] 29.8 µM | GI50 [17] 19.4 µM | GI50 [18] 16.2 µM | GI50 [19] 42 µM | GI50 [20] 23.6 µM | GI50 [21] 20 µM | GI50 [22] 15.2 µM | GI50 [23] 23.2 µM | GI50 [24] 15.6 µM | GI50 [25] 16.1 µM | GI50 [26] 12.9 µM | GI50 [27] 36.1 µM | GI50 [28] 34.4 µM | GI50 [29] 14.2 µM | GI50 [30] 14.9 µM | GI50 [31] 12.8 µM | GI50 [32] 32.1 µM | GI50 [33] 12.6 µM | GI50 [34] 19.6 µM | GI50 [35] 19 µM | GI50 [36] 30.2 µM | GI50 [37] 15.3 µM | GI50 [38] 21.8 µM | GI50 [39] 30.8 µM | GI50 [40] 54.4 µM | GI50 [41] 13.6 µM | GI50 [42] 17 µM | GI50 [43] 24.9 µM | GI50 [44] 18.7 µM | GI50 [45] 15.7 µM | GI50 [46] 18 µM | GI50 [47] 16.1 µM | GI50 [48] 15.4 µM | GI50 [49] 24.2 µM | GI50 [50] 22.1 µM | GI50 [51] 12.4 µM | GI50 [52] 16.3 µM | GI50 [53] 11.9 µM | GI50 [54] 44.3 µM | GI50 [55] 19.4 µM | GI50 [56] 13.7 µM | GI50 [57] 28.9 µM | GI50 [58] 14.5 µM | GI50 [59] 14.7 µM
48.9 µM: TGI [17]
31.2 µM: TGI [2]
29.2 µM: TGI [11]
43.3 µM: TGI [46]
36.2 µM: TGI [18]
48.5 µM: TGI [7]
44.4 µM: TGI [23]

COc1ccc(C(=O)/C=C/c2ccc(OCc3ccccc3)c(OC)c2)cc1OC
92.2 µM: TGI [55]
43 µM: TGI [56]
78.9 µM: TGI [48]
43.1 µM: TGI [8]
55.7 µM: TGI [5]
45.7 µM: TGI [17]
30 µM: TGI [21]
87.3 µM: TGI [14]
39.3 µM: TGI [53]
7.35 µM and 32.2 µM: TGI [31]
38.3 µM: TGI [22]
59.6 µM: TGI [15]
47.6 µM: TGI [6]
37.1 µM: TGI [13]
inactive: GI50 [1] 3.6 µM | GI50 [2] 25.4 µM | GI50 [3] 3.06 µM | GI50 [4] 18.4 µM | GI50 [5] 5.08 µM | GI50 [6] 3.45 µM | GI50 [7] 10.4 µM | GI50 [8] 17.4 µM | GI50 [9] 8.3 µM | GI50 [10] 3.38 µM | GI50 [11] 15.3 µM | GI50 [12] 3.64 µM | GI50 [13] 4.11 µM | GI50 [14] 5.34 µM | GI50 [15] 12 µM | GI50 [16] 3.02 µM | GI50 [17] 4.48 µM | GI50 [18] 41.1 µM | GI50 [19] 2.8 µM | GI50 [20] 3.16 µM | GI50 [21] 7.06 µM | GI50 [22] 4.6 µM | GI50 [23] 21.4 µM | GI50 [24] 3.52 µM | GI50 [25] 6.33 µM | GI50 [26] 18.7 µM | GI50 [27] 5.19 µM | GI50 [28] 15.7 µM | GI50 [29] 5.38 µM | GI50 [30] 16.7 µM | GI50 [31] 2.15 µM and 3.99 µM | GI50 [32] 27.4 µM | GI50 [33] 9.59 µM | GI50 [34] 34 µM | GI50 [35] 11.4 µM | GI50 [36] 17.4 µM | GI50 [37] 6.42 µM | GI50 [38] 4.47 µM | GI50 [39] 13.4 µM | GI50 [40] 4.01 µM | GI50 [42] 40.5 µM | GI50 [43] 5.46 µM | GI50 [44] 3.56 µM | GI50 [45] 3.44 µM | GI50 [46] 4.48 µM | GI50 [47] 4.95 µM | GI50 [48] 8.48 µM | GI50 [49] 10.8 µM | GI50 [50] 20.3 µM | GI50 [51] 7.05 µM | GI50 [52] 4.86 µM | GI50 [53] 5.08 µM | GI50 [54] 5.78 µM | GI50 [55] 12.5 µM | GI50 [56] 6.95 µM | GI50 [57] 29.3 µM | GI50 [58] 4.28 µM | GI50 [59] 6.03 µM
61.2 µM: TGI [39]
94.2 µM: TGI [50]
36.3 µM: TGI [52]
> 100 µM: TGI [1] | TGI [2] | TGI [3] | TGI [4] | TGI [7] | TGI [9] | TGI [11] | TGI [12] | TGI [16] | TGI [18] | TGI [19] | TGI [20] | TGI [23] | TGI [24] | TGI [25] | TGI [27] | TGI [28] | TGI [29] | TGI [30] | TGI [32] | TGI [33] | TGI [34] | TGI [35] | TGI [37] | TGI [38] | TGI [40] | TGI [42] | TGI [43] | TGI [44] | TGI [45] | TGI [46] | TGI [47] | TGI [49] | TGI [51] | TGI [54] | TGI [57] | TGI [58] | TGI [59]
13.1 µM: TGI [10]
60.5 µM: TGI [36]
77.2 µM: TGI [26]
